Assay [1] relates to tomato spotted wilt virus (TSWV). Briefly: Replicated tomato drench trial (Example 6). The format is in vivo, tomato (Lycopersicon esculentum MILL.). The conditions noted are these: prothioconazole 0.0084 g ai/plant, imidacloprid 0.01 g/plant; for Percent control of incidence of TSWV in tomatoes: Abbott's formula; for Percent incidence of TSWV in tomatoes: drench. How it is done:
Cultivation—A replicated trial on tomato (Lycopersicon esculentum MILL.) was initiated in Molino, Fla. to determine if drenches of prothioconazole alone and in combination with the insecticide imidacloprid would suppress TSWV in tomato. Tomato plants, cultivar FL 47 were transplanted on April 11 into 4 rows, each 9.1 meters long, 60 plants per plot, with three replications. Treatments were applied, into a shallow bowl dug at the base of each plant, as a drench in 40 ml water per plant (6 days after transplanting) on April 17. Treatments— • Untreated—no in-furrow treatment • Imidacloprid@0.01 g imidacloprid/plant. • Prothioconazole—prothioconazole@0.0084 g active ingredient/plant. • Prothioconazole+Imidacloprid—prothioconazole@0.0084 g active ingredient/plant+imidacloprid@0.01 g imidacloprid/plant. TSWV rating—University researchers recommend buffers in TSWV testing. Therefore, the center two rows (30 plants) per plot were used for virus ratings with the outer two rows acting as buffers. TSWV incidence determinations were made based on the presence or absence of TSWV symptoms (chlorosis and stunting) per plant. The four treatments were rated at 21, 29, and 39 days after treatment. Synergy formula—The Colby formula for proof of synergy was used in Example 6. The percent incidence values were converted to percent control with Abbotts's formula (1-treated/untreated)*100. Percent control values for solo treatment X and solo treatment Y, were entered into the Colby formula. When the value determined from the plots with both treatment X and Y applied together is greater than the value determined by the Colby formula then synergy is indicated. The formula is: X+Y−(X*Y/100).

Assay [2] shares this test system. Put plainly: Replicated peanut field trials, in-furrow treatment at planting (Examples 1-3). The format is in vivo, peanut (Arachis hypogaea L.). The note with it: for TSWV Incidence (number of symptomatic feet of row per 60 foot plot): 8 replicate plots. The protocol:
Cultivation—Three replicated field trials were conducted at the Bayer CropScience research farm in Tifton, Ga., using standard commercial peanut practices. Prior to planting, fields were flag staked to establish 8 replications per treatment per trial of two rows by 30 ft long (6 ft by 30 ft, 60 row feet total) each. On May 19, two cultivars of peanut (Arachis hypogaea L.), Georgia Green (two fields, Examples 1 and 2) and Carver (one field, Example 3) were planted using a two-row Monosem air planter. During the planting passes a tractor mounted compressed air system was used to spray the in-furrow treatment into the furrow before row closure. All other plots were not treated at planting. Single field passes were used to plant entire fields to ensure a uniform planting depth. Treatments— • Treated—Plots received an in-furrow application of prothioconazole at planting at a rate of 200 g prothioconazole/Ha. Through the season these plots received foliar fungicide maintenance using standard commercial fungicides including chlorothalonil and tebuconazole. • Untreated—Due to standard practices in peanut pesticide testing, each treated plot always included untreated peanut plots adjacent to the treated plots that serve as spacer rows. […] Untreated plots in Examples 1 and 3 received foliar maintenance applications to control foliar diseases. […] TSWV rating—Plots were examined periodically following emergence for differences in appearance. In certain instances, (August 19 data for example), TSWV incidence is determined as the number of row feet with TSWV symptoms (chlorosis and stunting) which was determined for the two treatments.

The test system is the same in assay [3]. Briefly: Bell pepper drench trial (Example 7). The assay is classed as in vivo, bell pepper (Capsicum annum L.). The note with it: for Percent control of incidence of TSWV in bell peppers: Abbott's formula; for Percent incidence TSWV in bell peppers: drench, prothioconazole 0.0084 g ai/plant, imidacloprid 0.01 g/plant. The protocol:
Cultivation—A trial on bell pepper (Capsicum annum L.) was initiated in Molino, Fla. to see if drenches of prothioconazole alone and in combination with the insecticide imidacloprid could control TSWV in pepper. Bell pepper plants were transplanted on April 11 into 9.1 meter plots with three replications as in Example 6. Treatments were applied as a drench in 40 ml water per plant (7 days after transplanting) on April 18 as in Example 6.
Treatments— • Untreated—no in-furrow treatment. • Imidacloprid—imidacloprid@0.01 g imidacloprid/plant. • Prothioconazole—prothioconazole@0.0084 g prothioconazole/plant. • Prothioconazole+Imidacloprid—prothioconazole@0.0084 g active ingredient/plant+imidacloprid@0.01 g imidacloprid/plant.
TSWV rating—For TSWV incidence determination, the percentage of plants with TSWV symptoms (chlorosis and stunting) was determined for the four treatments at 21, 29, 38, and 47 days after treatment as in Example 6.
Synergy formula—The Colby formula for proof of synergy was used in Example 7 as in Example 6.

The test system is the same in assay [4]. Briefly: Non-replicated GLP peanut residue trial, Tifton, Ga. (Example 4). The note with it: for Percent row feet infected with TSWV: rated August 22, 525 row ft plot. The assay is classed as in vivo. The protocol: Cultivation—A non-replicated GLP (good laboratory practice) peanut residue trial was in progress at the Tifton, Ga., location using similar cultivation methods as in Examples 1-3. The planting and in-furrow treatment date was May 26. Prothioconazole treated seed were prepared two weeks prior on May 12. Plots were 525 row ft. Treatments— • Untreated—no in-furrow treatment, chlorothalonil maintenance only for foliar diseases. • Seed treatment, in-furrow, and foliar—prothioconazole seed treatment@10 g active ingredient/100 kg seed plus prothioconazole applied in-furrow@200 g active ingredient/Ha followed by prothioconazole@100 g active ingredient/Ha on July 21, August 4, and August 18. • Foliar only—prothioconazole@200 g active ingredient/Ha on July 21, August 4, and August 18. TSWV rating—For TSWV incidence determination, on August 22 the number of row feet per plot with TSWV symptoms (chlorosis and stunting) was determined for the three treatments. Statistics cannot be run on single-replication trials.

This note sets out measurements from patent US20080039431A1, “Method of improving plant growth by reducing viral infections” (priority 2006, published 2008).

Values joined by “and” are separate entries in the source; they are usually repeats but may differ in a detail not shown here. Identical values can stand only once.

Take `OC(Cc1ccccc1Cl)(Cn1nc[nH]c1=S)C1(Cl)CC1` (centres unmarked) [Prothioconazole, prothioconazole]: the entries for the “Percent control of incidence of TSWV in tomatoes” value in assay [1] (21 days after treatment), in assay [1] (29 days after treatment) and in assay [1] (39 days after treatment) were 54.79%, 28.00% and 21.18%, respectively. Besides, the “Percent incidence of TSWV in tomatoes” value in assay [1] (21 days after treatment) came out at 13.2%; in assay [1] (29 days after treatment), 48.6%; in assay [1] (39 days after treatment), 66.6%. In addition, in assay [2] (Carver trial (Example 3), in-furrow treatment), the “Reduction of TSWV incidence compared to untreated” value is “not significant”. In addition, the “TSWV Incidence (number of symptomatic feet of row per 60 foot plot)” value in assay [2] (Example 1, Georgia Green, in-furrow 200 g prothioconazole/Ha at planting with foliar maintenance (chlorothalonil, tebuconazole)) is 18 feet of row per 60 foot plot (2×) and 14 feet of row per 60 foot plot and 19 feet of row per 60 foot plot (2×) and 8 feet of row per 60 foot plot and 12 feet of row per 60 foot plot and 20 feet of row per 60 foot plot; in assay [2] (Example 2, Georgia Green, in-furrow 200 g prothioconazole/Ha at planting with foliar maintenance, adjacent untreated had no foliar maintenance), 13 feet of row per 60 foot plot and 25 feet of row per 60 foot plot (2×) and 24 feet of row per 60 foot plot and 17 feet of row per 60 foot plot and 18 feet of row per 60 foot plot and 27 feet of row per 60 foot plot and 20 feet of row per 60 foot plot; in assay [2] (Example 3, Carver, in-furrow 200 g prothioconazole/Ha at planting with foliar maintenance), 17 feet of row per 60 foot plot and 8 feet of row per 60 foot plot and 19 feet of row per 60 foot plot and 26 feet of row per 60 foot plot and 12 feet of row per 60 foot plot and 16 feet of row per 60 foot plot and 7 feet of row per 60 foot plot and 9 feet of row per 60 foot plot. The “TSWV incidence in percent of row feet with symptoms compared to untreated controls” value in assay [2] (Georgia Green (Example 1 and 2), in-furrow treatment) is given as “significantly lower”. In addition, the “Percent control of incidence of TSWV in bell peppers” value came to 24.90% in assay [3] (21 days after treatment), 32.20% in assay [3] (29 days after treatment), 12.84% in assay [3] (38 days after treatment) and 6.44% in assay [3] (47 days after treatment). The “Percent incidence TSWV in bell peppers” value is listed as 18.1% in assay [3] (21 days after treatment), 31.8% in assay [3] (29 days after treatment), 44.8% in assay [3] (38 days after treatment) and 49.4% in assay [3] (47 days after treatment). The “Increase of TSWV level from 38 DAT to 47 DAT” value in assay [3] (bell pepper, untreated increased by 1.4 percent) is on record as “roughly 4.5%”. For the same compound, the “Percent row feet infected with TSWV” value in assay [4] (foliar only 200 g ai/Ha x3) amounted to 30.5%; in assay [4] (seed treatment 10 g ai/100 kg seed + in-furrow 200 g ai/Ha + foliar 100 g ai/Ha x3), 24.0%. Also, in assay [4] (seed treatment, in-furrow, and foliar applications), the “Number of row feet infected with TSWV compared with foliar only program or untreated” value is recorded as “numerically lower”.
